In EP0394553A2, “Use of fluorine containing pyridone carboxylic acid derivatives for preparing a medicament for the treatment of HIV infections” (DAIICHI PHARMACEUTICAL CO., LTD., priority 1989, dated 1990):

How the values were obtained:
[1] = in vivo; conditions: mouse, po
[2] = system: HIV (LAV 1); test: microbe, parasite or virus in culture; conditions: for Viable cell count / Viral antigen-positive cell percentage: 4-day addition
Method: (§1) Human T cell-derived, T4 antigen-positive CEM cells (provided by the Institut Pasteur, France) were used as host cells of HIV. Cell culture was carried out in a carbon dioxide-containing atmosphere in an incubator maintained at 37°C according to a conventional method [cf. […] The culture supernatant (5×10⁶ TCID₅₀/ml) obtained by subjecting CEM cells to HIV (LAV 1) infection and stored at -70°C was used as the HIV source.
The medium for cell culture (10 ml) placed in a plastic culture flask (25 cm²) was inoculated with CEM cells at a cell density of 2.5×10⁵ cells/ml. After 3 days of incubation, the culture was transferred to a 15-ml centrifuge tube and subjected to centrifugation at 1,000 revolutions per minute for 5 minutes for sedimentation of cells and removal of the culture medium.
The stock viral suspension was added to the host cells thus prepared to an MOI of 0.05 and the mixture was maintained at 37°C for 90 minutes with stirring at 30-minute intervals for viral adsorption. The medium was added to HIV-infected cells to a cell density of 5.0×10⁵ cells/ml to give an HIV-infected cell suspension.
A mixture (1.0 ml) of the three constituents mentioned below was added to each well of a 24-well plastic culture plate and the test substance final concentration was adjusted to 10 mcg/ml, 5 mcg/ml, 2.5 mcg/ml or 1 mcg/ml. The "no addition" wells (0 mcg/ml) served as controls.
After 4 days of incubation following viral infection, the cells in each well on the 24-well culture plate were suspended uniformly by pipetting and a 0.5-ml portion of the suspension was separated. A 2.0-ml portion of test substance-free fresh medium was added to the remaining 0.5-ml portion of the cell suspension, followed by incubation.
Seven days after viral infection, pipetting was performed to give a uniform cell suspension in each well and a 0.5-ml portion of the suspension was separated.
Incubation was continued and, 10 days after viral infection, a uniform cell suspension was produced in the same manner in each well and a 1.5-ml portion thereof was separated. A fresh 2.0-ml portion of the medium free of (or containing) the test substance was added to the well, followed by further incubation.
Fifteen days after viral infection, the cells in each well were suspended uniformly in the same manner in the medium and a 2.0-ml portion of the suspension was separated. A fresh 2.0-ml portion of the medium free of (or containing) the test substance was added to the remaining 0.5 ml of the cell suspension and incubation was continued.
Medium exchange was performed in the same manner 20 days and 25 days after viral infection.
The cell suspensions collected 4 days, 7 days, 10 days, 20 days and 30 days after viral infection were tested for viable cell count and viable cell percentage by trypan blue staining. At the same time, viral antigen-positive cell percentage determination was carried out by immunofluorescence using an anti-HIV antiserum isolated from a healthy carrier of HIV.
The numerical values given each is the mean for the respective two wells on the culture plate. The viable cell count is the total cell count minus the count of dead cells stained with trypan blue. The viable cell percentage is the percentage of viable cells among all the cells including dead cells. The viral antigen-positive cell percentage is the percentage of cells indicating antigen expression as found among all the cells including dead cells.

[3] = system: CEM cells; test: Cytotoxicity in uninfected CEM cells (trypan blue staining); conditions: at concentrations not exceeding 10 mcg/ml
Method: as §1
The cell culture medium (10 ml) placed in a plastic culture flask (25 cm²) was inoculated with CEM cells to a cell density of 2.5×10⁵ cells/ml and incubation was performed for 3 days. Then, the culture was transferred to a 15-ml plastic centrifuge tube and centrifuged at 1,000 revolutions per minute for 5 minutes for medium removal. A fresh portion of the medium was added to the cells, the cell density being adjusted to 5.0×10⁵ cells/ml. The following mixture (1.0 ml) containing the cell suspension prepared in the above manner was incubated in a 24-well plastic culture plate for 4 days:
The cells in each well were then suspended uniformly in the medium by pipetting and a 0.5-ml portion of the suspension was separated.
A fresh 2-ml portion of the test substance-free medium was added to the remaining cell suspension (0.5 ml) and, after a further 3-day incubation, a cell suspension was produced in the same manner and a 0.5-ml portion thereof was removed.
The cell suspensions collected in the above manner were subjected to viable cell count and viable cell percentage determinations by trypan blue staining.

[4] = Human immunodeficiency virus 1, CCRF-CEM, 96 h, read-out: Viable cell percentage

Row | Structure (SMILES) | Viable cell count ([2]; 1 mcg/ml, after 4 days) | Viral antigen-positive cell percentage ([2]; 1 mcg/ml, after 4 days) | Viable cell count ([2]; 1 mcg/ml, after 7 days) | Viral antigen-positive cell percentage ([2]; 1 mcg/ml, after 7 days) | Viable cell count ([2]; 1 mcg/ml, after 10 days) | Viable cell count ([2]; 1 mcg/ml, after 20 days) | Viable cell count ([2]; 1 mcg/ml, after 30 days) | Viable cell count ([2]; 2.5 mcg/ml, after 4 days) | Viral antigen-positive cell percentage ([2]; 2.5 mcg/ml, after 4 days) | Viable cell count ([2]; 2.5 mcg/ml, after 7 days) | Viral antigen-positive cell percentage ([2]; 2.5 mcg/ml, after 7 days) | Viable cell count ([2]; 2.5 mcg/ml, after 10 days) | Viable cell count ([2]; 2.5 mcg/ml, after 20 days) | Viable cell count ([2]; 2.5 mcg/ml, after 30 days) | Viable cell count ([2]; 5 mcg/ml, after 4 days) | Viral antigen-positive cell percentage ([2]; 5 mcg/ml, after 4 days) | Viable cell count ([2]; 5 mcg/ml, after 7 days) | Viral antigen-positive cell percentage ([2]; 5 mcg/ml, after 7 days) | Viable cell count ([2]; 5 mcg/ml, after 10 days) | Viable cell count ([2]; 5 mcg/ml, after 20 days) | further results
1 | CCn1cc(C(=O)O)c(=O)c2cc(F)c(N3CCNCC3)nc21 [ENX, 1-ethyl-6-fluoro-1,4-dihydro-4-oxo-7-(1-piperazinyl)-1,8-naphthyridine-3-carboxylic acid sesqui-hydrate] | 220 × 10⁴ cells/ml | 88% | 64 × 10⁴ cells/ml | 70% | 29 × 10⁴ cells/ml | 7 × 10⁴ cells/ml | 0 × 10⁴ cells/ml | 240 × 10⁴ cells/ml | 90% | 67 × 10⁴ cells/ml | 65% | 30 × 10⁴ cells/ml | 1 × 10⁴ cells/ml | 2 × 10⁴ cells/ml | 210 × 10⁴ cells/ml | 93% | 58 × 10⁴ cells/ml | 68% | 78 × 10⁴ cells/ml | 11 × 10⁴ cells/ml | LD50 [1]: ≥ 4000 mg/kg; Viable cell count ([2]; 5 mcg/ml, after 30 days): 310 × 10⁴ cells/ml; Viral antigen-positive cell percentage ([2]; 5 mcg/ml, after 30 days): ≦1%; Viable cell count ([2]; 10 mcg/ml, after 4 days): 140 × 10⁴ cells/ml; Viral antigen-positive cell percentage ([2]; 10 mcg/ml, after 4 days): 88%; Viable cell count ([2]; 10 mcg/ml, after 7 days): 52 × 10⁴ cells/ml; Viral antigen-positive cell percentage ([2]; 10 mcg/ml, after 7 days): 68%; Viable cell count ([2]; 10 mcg/ml, after 10 days): 150 × 10⁴ cells/ml; Viral antigen-positive cell percentage ([2]; 10 mcg/ml, after 10 days): 30%; Viable cell count ([2]; 10 mcg/ml, after 20 days): 178 × 10⁴ cells/ml; Viral antigen-positive cell percentage ([2]; 10 mcg/ml, after 20 days): 5%; Viable cell count ([2]; 10 mcg/ml, after 30 days): 379 × 10⁴ cells/ml; Viral antigen-positive cell percentage ([2]; 10 mcg/ml, after 30 days): ≦1%; viability at 1 µg/mL [2, 4]: 95%; viability at 2.5 µg/mL [2, 4]: 95%; viability at 5 µg/mL [2, 4]: 98%; viability at 10 µg/mL [2, 4]: 97%; cytotoxicity [3]: no cytotoxicity
2 | Cl.O.O=C(O)c1cn(C2CC2)c2cc(N3CCNCC3)c(F)cc2c1=O [CPFX, 1-cyclopropyl-6-fluoro-1,4-dihydro-4-oxo-7-(1-piperazinyl)-3-quinoline carboxylic acid hydrochloride hydrate] | 220 × 10⁴ cells/ml | 83% | 86 × 10⁴ cells/ml | 62% | 52 × 10⁴ cells/ml | 8 × 10⁴ cells/ml | 33 × 10⁴ cells/ml | 200 × 10⁴ cells/ml | 87% | 98 × 10⁴ cells/ml | 60% | 320 × 10⁴ cells/ml | 220 × 10⁴ cells/ml | 360 × 10⁴ cells/ml | 220 × 10⁴ cells/ml | 92% | 76 × 10⁴ cells/ml | 67% | 310 × 10⁴ cells/ml | 280 × 10⁴ cells/ml | Viral antigen-positive cell percentage ([2]; 1 mcg/ml, after 10 days): 37%; Viral antigen-positive cell percentage ([2]; 1 mcg/ml, after 20 days): 33%; Viral antigen-positive cell percentage ([2]; 2.5 mcg/ml, after 10 days): 31%; Viral antigen-positive cell percentage ([2]; 2.5 mcg/ml, after 20 days): 3%; Viral antigen-positive cell percentage ([2]; 2.5 mcg/ml, after 30 days): ≦1%; Viral antigen-positive cell percentage ([2]; 5 mcg/ml, after 10 days): 29%; Viral antigen-positive cell percentage ([2]; 5 mcg/ml, after 20 days): 4%; Viable cell count ([2]; 5 mcg/ml, after 30 days): 320 × 10⁴ cells/ml; Viral antigen-positive cell percentage ([2]; 5 mcg/ml, after 30 days): ≦1%; Viable cell count ([2]; 10 mcg/ml, after 4 days): 180 × 10⁴ cells/ml; Viral antigen-positive cell percentage ([2]; 10 mcg/ml, after 4 days): 88%; Viable cell count ([2]; 10 mcg/ml, after 7 days): 65 × 10⁴ cells/ml; Viral antigen-positive cell percentage ([2]; 10 mcg/ml, after 7 days): 57%; Viable cell count ([2]; 10 mcg/ml, after 10 days): 250 × 10⁴ cells/ml; Viral antigen-positive cell percentage ([2]; 10 mcg/ml, after 10 days): 27%; Viable cell count ([2]; 10 mcg/ml, after 20 days): 300 × 10⁴ cells/ml; Viral antigen-positive cell percentage ([2]; 10 mcg/ml, after 20 days): 10%; Viable cell count ([2]; 10 mcg/ml, after 30 days): 330 × 10⁴ cells/ml; Viral antigen-positive cell percentage ([2]; 10 mcg/ml, after 30 days): ≦1%; cytotoxicity [3]: no cytotoxicity
